The values below come from patent US9556190B2, “Piperidinyloxy lactone orexin receptor antagonists” (MERCK SHARP & DOHME CORP., priority 2013, dated 2017).

The structures appear in SMILES notation.

The target of one test is human orexin-2 receptor (Homo sapiens (Human), UniProt O43614). As to the kind of experiment: FLIPR Ca2+ Flux Assay, CHO cells expressing orexin-2 receptor. To be noted: 70 pM Ala-6,12 orexin-A agonist, read-out: hOX2R FLIPR IC50. The class given is cell-based. The protocol:
The utility of the compounds in accordance with the present invention as orexin receptor OX1R and/or OX2R antagonists may be readily determined without undue experimentation by methodology well known in the art, including the “FLIPR Ca^2+ Flux Assay” (Okumura et al., Biochem. Biophys. Res. Comm. 280:976-981, 2001). In a typical experiment the OX1 and OX2 receptor antagonistic activity of the compounds of the present invention was determined in accordance with the following experimental method. For intracellular calcium measurements, Chinese hamster ovary (CHO) cells expressing the rat orexin-1 receptor or the human orexin-2 receptor, are grown in Iscove's modified DMEM containing 2 mM L-glutamine, […], 1% hypoxanthine-thymidine supplement, 100 U/ml penicillin, 100 μg/ml streptomycin and 10% heat-inactivated fetal calf serum (FCS). The cells are seeded at 20,000 cells/well into Becton-Dickinson black 384-well clear bottom sterile plates coated with poly-D-lysine. All reagents were from GIBCO-Invitrogen Corp. The seeded plates are incubated overnight at 37° C. and 5% CO2. Ala-6,12 human orexin-A as the agonist is prepared as a 1 mM stock solution in 1% bovine serum albumin (BSA) and diluted in assay buffer (HBSS containing 20 mM HEPES, 0.1% BSA and 2.5 mM probenecid, pH7.4) for use in the assay at a final concentration of 70 pM. Test compounds are prepared as 10 mM stock solution in DMSO, then diluted in 384-well plates, first in DMSO, then assay buffer. On the day of the assay, cells are washed 3 times with 100 μl assay buffer and then incubated for 60 min (37° C., 5% CO2) in 60 μl assay buffer containing 1 μM Fluo-4AM ester, 0.02% pluronic acid, and 1% BSA. The dye loading solution is then aspirated and cells are washed 3 times with 100 μl assay buffer. 30 μl of that same buffer is left in each well. Within the Fluorescent Imaging Plate Reader (FLIPR, Molecular Devices), test compounds are added to the plate in a volume of 25 μl, incubated for 5 min and finally 25 μl of agonist is added. Fluorescence is measured for each well at 1 second intervals for 5 minutes and the height of each fluorescence peak is compared to the height of the fluorescence peak induced by 70 pM Ala-6,12 orexin-A with buffer in place of antagonist. For each antagonist, IC50 value (the concentration of compound needed to inhibit 50% of the agonist response) is determined. Alternatively, compound potency can be assessed by a radioligand binding assay (described in Bergman et. al. Bioorg. Med. Chem. Lett. 2008, 18, 1425-1430) in which the inhibition constant (Ki) is determined in membranes prepared from CHO cells expressing either the OX1 or OX2 receptor. The intrinsic orexin receptor antagonist activity of a compound which may be used in the present invention may be determined by these assays.
On the technique in general: Calcium assays in cells follow changes in intracellular calcium, usually with a dye or a luminescent sensor.

The target in a further test is hOX1R (Homo sapiens, UniProt O43613). The experiment in a line: FLIPR Ca2+ Flux Assay, CHO cells expressing orexin-1 receptor. The class given is cell-based. As to conditions: 70 pM Ala-6,12 orexin-A agonist.

human orexin-2 receptor, sequence (O43614 whole entry): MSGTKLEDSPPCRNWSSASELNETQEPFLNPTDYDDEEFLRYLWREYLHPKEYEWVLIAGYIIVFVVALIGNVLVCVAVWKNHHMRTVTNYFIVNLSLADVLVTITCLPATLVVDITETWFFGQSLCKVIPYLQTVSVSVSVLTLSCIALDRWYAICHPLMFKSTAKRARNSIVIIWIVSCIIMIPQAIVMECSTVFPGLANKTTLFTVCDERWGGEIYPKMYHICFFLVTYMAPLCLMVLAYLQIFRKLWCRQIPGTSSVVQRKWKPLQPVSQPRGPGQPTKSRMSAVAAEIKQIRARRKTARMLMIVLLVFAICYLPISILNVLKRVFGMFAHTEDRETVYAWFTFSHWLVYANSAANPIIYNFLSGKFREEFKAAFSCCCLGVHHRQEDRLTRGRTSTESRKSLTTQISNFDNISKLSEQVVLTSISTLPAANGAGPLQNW

One may read the IC50 as the concentration at which inhibition is half-maximal. With `Cc1nc(-c2ccc(F)cc2C(=O)N2C[C@H](Oc3nccc4c3C(=O)OC4(C)C)CC[C@H]2C)no1` [Example 14, 4-{[(3R,6R)-1-{[5-fluoro-2-(5-methyl-1,2,4-oxadiazol-3-yl)phenyl]carbonyl}-6-methylpiperidin-3-yl]oxy}-1,1-dimethylfuro[3,4-c]pyridin-3(1H)-one], the concentration for half-maximal inhibition (IC50) on human orexin-2 receptor is 76 nM; on hOX1R, 10 µM.
`COc1ccc(C(=O)N2C[C@H](Oc3nccc4c3C(=O)OC4(C)C)CC[C@H]2C)c(-n2nccn2)c1` [Example 11, 4-{[(3R,6R)-1-{[4-methoxy-2-(2H-1,2,3-triazol-2-yl)phenyl]carbonyl}-6-methylpiperidin-3-yl]oxy}-1,1-dimethylfuro[3,4-c]pyridin-3(1H)-one]: the values for the IC50 on human orexin-2 receptor and at hOX1R were 147 nM and 10 µM, respectively.
Taken in the same sequence, the figures for `C[C@@H]1CC[C@@H](Oc2nccc3c2C(=O)OC3(C)C)CN1C(=O)c1cccc(F)c1-n1nccn1` [Example 7, 4-{[(3R,6R)-1-{[3-fluoro-2-(2H-1,2,3-triazol-2-yl)phenyl]carbonyl}-6-methylpiperidin-3-yl]oxy}-1,1-dimethylfuro[3,4-c]pyridin-3(1H)-one] were 132 nM and 10 µM.
Taken in the same sequence, the figures for `C[C@@H]1CC[C@@H](Oc2nccc3c2COC3=O)CN1C(=O)c1ccccc1-n1nccn1` [Example 28, 4-{[(3R,6R)-6-Methyl-1-{[2-(2H-1,2,3-triazol-2-yl)phenyl]carbonyl}piperidin-3-yl]oxy}furo[3,4-c]pyridin-1(3H)-one] were 16 nM and 4.67 µM.
Taken in the same sequence, the figures for `C[C@@H]1CC[C@@H](Oc2nccc3c2C(=O)OC3(C)C)CN1C(=O)c1ccccc1-n1nccn1` [Example 1, 1,1-Dimethyl-4-{[(3R,6R)-6-methyl-1-{[2-(2H-1,2,3-triazol-2-yl)phenyl]carbonyl}piperidin-3-yl]oxy}furo[3,4-c]pyridin-3(1H)-one] were 20 nM and 8.29 µM.
Take `C[C@@H]1CC[C@@H](Nc2nccc3c2C(=O)OC3)CN1C(=O)c1ccccc1-n1nccn1` [Example 40, 4-{[(3R,6R)-6-Methyl-1-{[2-(2H-1,2,3-triazol-2-yl)phenyl]carbonyl}piperidin-3-yl]amino}furo[3,4-c]pyridin-3(1H)-one]: the values for the IC50 at human orexin-2 receptor and at hOX1R were 136 nM and 10 µM, respectively.
The like results for `C[C@@H]1CC[C@@H](Oc2nccc3c2C(=O)OC3(C)C)CN1C(=O)c1cc(F)ccc1-n1nccn1` [Example 4, 4-{[(3R,6R)-1-{[5-fluoro-2-(2H-1,2,3-triazol-2-yl)phenyl]carbonyl}-6-methylpiperidin-3-yl]oxy}-1,1-dimethylfuro[3,4-c]pyridin-3(1H)-one] were, in that order, 23 nM and 10 µM.
The like results for `C[C@@H]1CC[C@@H](Nc2nccc3c2C(=O)OC3(C)C)CN1C(=O)c1ccsc1-n1nccn1` [Example 43, 1,1-dimethyl-4-{[(3R,6R)-6-methyl-1-{[2-(2H-1,2,3-triazol-2-yl)thiophen-3-yl]-carbonyl}piperidin-3-yl]amino}-furo[3,4-c]pyridin-3(1H)-one] were, in that order, 19 nM and 10 µM.
Regarding `C[C@@H]1CC[C@@H](Oc2nccc3c2COC3=O)CN1C(=O)c1cscc1-n1nccn1` [Example 30, 4-{[(3R,6R)-6-methyl-1-{[4-(2H-1,2,3-triazol-2-yl)-thiophen-3-yl]car-bonyl}piperidin-3-yl]oxy}furo[3,4-c]pyridin-1(3H)-one], the concentration for half-maximal inhibition (IC50) at human orexin-2 receptor was found to be 26 nM; on hOX1R, 10 µM.
Taken in the same sequence, the figures for `Cc1noc(-c2cccc(F)c2C(=O)N2C[C@H](Oc3nccc4c3C(=O)OC4(C)C)CC[C@H]2C)n1` [Example 17, 4-{[(3R,6R)-1-{[2-fluoro-6-(3-methyl-1,2,4-oxadiazol-5-yl)phenyl]carbonyl}-6-methylpiperidin-3-yl]oxy}-1,1-dimethylfuro[3,4-c]pyridin-3(1H)-one] were 102 nM and 10 µM.
Taken in the same sequence, the figures for `C[C@@H]1CC[C@@H](Oc2nccc3c2C(=O)OC3(C)C)CN1C(=O)c1ccsc1-c1ncccn1` [Example 25, 1,1-dimethyl-4-(((3R,6R)-6-methyl-1-(2-(pyrimidin-2-yl)thiophene-3-carbonyl)piperidin-3-yl)oxy)furo[3,4-c]pyridin-3(1H)-one] were 44 nM and 9.11 µM.
The like results for `COc1ccc(C(=O)N2C[C@H](Oc3nccc4c3C(=O)OC4(C)C)CC[C@H]2C)c(-n2nccn2)n1` [Example 12, 4-{[(3R,6R)-1-{[6-methoxy-2-(2H-1,2,3-triazol-2-yl)pyridin-3-yl]carbonyl}-6-methylpiperidin-3-yl]oxy}-1,1-dimethylfuro[3,4-c]pyridin-3(1H)-one] were, in that order, 195 nM and 10 µM.
For `Cc1nc(-c2cc(F)ccc2C(=O)N2C[C@H](Oc3nccc4c3C(=O)OC4(C)C)CC[C@H]2C)no1` [Example 15, 4-{[(3R,6R)-1-{[4-fluoro-2-(5-methyl-1,2,4-oxadiazol-3-yl)phenyl]carbonyl}-6-methylpiperidin-3-yl]oxy}-1,1-dimethylfuro[3,4-c]pyridin-3(1H)-one], the IC50 on human orexin-2 receptor stood at 232 nM; at hOX1R, 10 µM.
Consider `C[C@@H]1CC[C@@H](Oc2nccc3c2C(=O)OC3(C)C)CN1C(=O)c1ccc(Cl)cc1-n1nccn1` [Example 9, 4-{[(3R,6R)-1-{[4-chloro-2-(2H-1,2,3-triazol-2-yl)phenyl]carbonyl}-6-methylpiperidin-3-yl]oxy}-1,1-dimethylfuro[3,4-c]pyridin-3(1H)-one], for which the figures for the half-inhibitory concentration (IC50) on human orexin-2 receptor and on hOX1R were 54 nM and 3.74 µM, respectively.
Consider `C[C@@H]1CC[C@@H](Oc2nccc3c2C(=O)OC3(C)C)CN1C(=O)c1cc(F)ccc1-c1ncccn1` [Example 24, 4-({(3R,6R)-1-[(5-fluoro-2-pyrimidin-2-ylphenyl)carbonyl]-6-methylpiperidin-3-yl}oxy)-1,1-dimethylfuro[3,4-c]pyridin-3(1H)-one], for which the half-inhibitory concentration (IC50) at human orexin-2 receptor was determined as 72 nM; on hOX1R, 10 µM.
For `C[C@@H]1CC[C@@H](Oc2cccc3c2C(=O)OC3(C)C)CN1C(=O)c1ccccc1-n1nccn1` [Example 38, 3,3-Dimethyl-7-{[(3R,6R)-6-methyl-1-{[2-(2H-1,2,3-triazol-2-yl)phenyl]carbonyl}piperidin-3-yl]oxy}-2-benzofuran-1(3H)-one], the IC50 on human orexin-2 receptor was found to be 169 nM; on hOX1R it was 10 µM.
The like results for `C[C@@H]1CC[C@@H](N(C)c2nccc3c2C(=O)OC3(C)C)CN1C(=O)c1ccccc1-n1ncnn1` [Example 45, 1,1-Dimethyl-4-{methyl[(3R,6R)-6-methyl-1-{[2-(2H-tetrazol-2-yl)phenyl]carbonyl}piperidin-3-yl]amino}furo[3,4-c]pyridin-3(1H)-one] were, in that order, 127 nM and 9.33 µM.
Taken in the same sequence, the figures for `C[C@@H]1CC[C@@H](Oc2nccc3c2C(=O)OC3(C)C)CN1C(=O)c1ccsc1-n1nccn1` [Example 20, 1,1-Dimethyl-4-{[(3R,6R)-6-methyl-1-{[2-(2H-1,2,3-triazol-2-yl)thiophen-3-yl]carbonyl}piperidin-3-yl]oxy}furo[3,4-c]pyridin-3(1H)-one] were 39 nM and 10 µM.
